Source: article PMC6936879, “Inhibiting the copper efflux system in microbes as a novel approach for developing antibiotics” (PLoS ONE, 2019)

Tests used:
CusB = target: T1, CusB (Escherichia coli, UniProt P77239, A236C/A248C); assay: DEER distance distribution measurements on spin-labeled CusB; parameters: species or system E. coli; settings: CusB spin labeled (MTSSL) at A236C and A248C; Cu(I):CusB 3:1; Q-band DEER at 50 K; apo-CusB 2.5 ± 0.5 nm, holo-CusB 2.8 ± 0.3 nm
T1 construct: intein (cleaved yes); made in house; host or cells: E. coli BL21 (DE3)
Procedure: Before labeling, 10 mM DTT was added to the protein solution and mixed overnight at 4°C. DTT was dialyzed out using a Microsep Advanced Centrifugal Device (Pall, Port Washington, NY, USA) applied to samples of up to 5 mL in lysis buffer, with a 3-kDa molecular weight cutoff. Next, 0.25 mg of S-(2,2,5,5-tetramethyl-2,5-dihydro-1H-pyrrol-3-yl)methyl methanesulfonothioate (MTSSL, TRC) was dissolved in 15 μL Dimethyl sulfoxide (DMSO) and added to 0.75 ml of 0.01 mM protein solution (20-fold molar excess of MTSSL). The protein solution was then vortexed overnight at 4°C. The free spin label and Cu(I) ions were removed by several dialysis cycles over 4 days. […] The concentration was determined with a Lowry assay. […]
A constant-time four-pulse double electron-electron resonance (DEER) experiment with pulse sequence π/2(νobs)-τ1-π(νobs)-t′−π(νpump)-(τ1 + τ2 − t′)-π(νobs)-τ2(νobs)-τ2-echo was performed at (50 ± 0.5 K) on a Q-band Elexsys E580 equipped with a 2-mm probe head; bandwidth, 220 MHz. […] The echo was measured as a function of t′, and τ2 was kept constant to eliminate relaxation effects. […] The samples were measured in 1.6-mm quartz capillary tubes (Wilmad-Labglass, Vineland, NJ, USA). The data were analyzed with the DeerAnalysis 2016 program and with Tikhonov regularization. […]

E. coli (BL21) = assay: Kirby-Bauer test (disc diffusion); assay type: cell-based; settings: 2 mm radius discs, LB petri dishes, 37 °C overnight
E. coli (BL21;DE3) = assay: E. coli viability assay (LIVE/DEAD fluorescence imaging); assay type: cell-based; settings: peptide 125 μM; LIVE/DEAD staining, M9 medium, confocal imaging, cell counts with ImageJ; mean ± SE, n = 3
Procedure: E. coli (BL21;DE3) were dyed using the L7007 LIVE/DEAD Bacterial Viability kit (Molecular Probes, Eugene OR, USA); microbes were grown in M9 medium. Images were acquired on a Leica SP8 confocal microscope, running LASX acquisition software. The magnification consisted of a 63 X 1.4 NA objective. Microbes were counted using ImageJ software. Error calculations were based on three repetitions, with each experiment scanned at nine different tiles—all together, 27 repetitions.
Live/dead fluorescence cell imaging experiments were used to indicate bacterial viability when incubated with the peptides. This method also helped to determine whether the decrease in the growth rate described above resulted from deceleration in E. coli growth or its substantial death. E coli were grown to the late […] phase (according to the growth rate lines; Figs B to D in S1 File) in the presence of the peptides in poor medium (M9), which mostly resembles physiological conditions.[52–54] Glucose levels in the growth media were sufficient to prevent bacterial viability loss due to lack of nutrition, yet not too high to positively affect its viability. […] However, the effect of the peptides was not as substantial as the commercially available antibiotic kanamycin. […] 5 ± 4.3% and up to 45.3 ± 4.3% reduction at a concentration of 125 μM.
Fig 4 Effect of the test peptides on E. coli viability. […]

Substance: AKIQG [pep8]
- DEER distance distribution of CusB bound to peptide and incubated with Cu(I) (CusB): around 3.2 nm
- r, radius of bacteria killing formed over petri dishes by peptide-solution discs (E. coli (BL21); disc solution 50 µM in 0.85% NaCl): 0 mm
- r, radius of bacteria killing formed over petri dishes by peptide-solution discs (E. coli (BL21); disc solution 75 µM in 0.85% NaCl): 0.5 mm
- r, radius of bacteria killing formed over petri dishes by peptide-solution discs (E. coli (BL21); disc solution 100 µM in 0.85% NaCl): 0.5 mm
- r, radius of bacteria killing formed over petri dishes by peptide-solution discs (E. coli (BL21); disc solution 125 µM in 0.85% NaCl): 1 mm
- reduction of bacterial viability (E. coli (BL21;DE3)): 41 ±5.15%
